# From patent US12662489B2 (Sitryx Therapeutics Limited, priority 2023, dated 2026)
# Columns and labels:
# human CD4+ T cells = assay: Human CD4+ T-cell proliferation assay (CFSE, CD3/28 beads); details: read-out: Proliferation IC50
# [1] = biological target: T1, MTHFD1 recombinant human enzyme (Homo sapiens, UniProt P11586); assay: MTHFD1 inhibition assay (NAD(P)H-Glo luminescence); details: MTHFD1 IC50, recombinant human enzyme 200 nM, NADP, band
# T1 sequence (P11586 2-291 limits assumed): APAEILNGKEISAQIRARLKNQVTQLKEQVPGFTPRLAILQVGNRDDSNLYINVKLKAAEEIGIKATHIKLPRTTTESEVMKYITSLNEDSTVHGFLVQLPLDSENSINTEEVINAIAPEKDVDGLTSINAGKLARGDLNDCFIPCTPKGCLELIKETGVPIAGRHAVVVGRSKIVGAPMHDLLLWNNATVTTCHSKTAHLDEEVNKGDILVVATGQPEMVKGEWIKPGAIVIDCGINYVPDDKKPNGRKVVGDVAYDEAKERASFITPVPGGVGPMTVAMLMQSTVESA
# [2] = biological target: T2, MTHFD2 recombinant human enzyme (Homo sapiens, UniProt P13995); assay: MTHFD2 inhibition assay (NAD(P)H-Glo luminescence); details: for MTHFD1/MTHFD2 IC50 ratio: selectivity of MTHFD2 inhibition over MTHFD1, band
# T2 sequence (P13995 36-350): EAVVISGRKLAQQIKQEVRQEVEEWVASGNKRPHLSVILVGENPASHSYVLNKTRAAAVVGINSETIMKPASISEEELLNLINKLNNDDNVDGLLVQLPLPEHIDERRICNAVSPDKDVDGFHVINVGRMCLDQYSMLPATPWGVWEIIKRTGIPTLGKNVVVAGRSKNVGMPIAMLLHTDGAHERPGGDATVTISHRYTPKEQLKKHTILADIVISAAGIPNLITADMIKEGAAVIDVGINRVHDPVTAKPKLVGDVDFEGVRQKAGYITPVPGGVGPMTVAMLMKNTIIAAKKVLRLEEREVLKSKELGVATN
Compound,IC50 (human CD4+ T cells),IC50 [1],IC50 [2],MTHFD1/MTHFD2 IC50 ratio [2]
"COC[C@H]1CN(c2cc(C)c3c4c(c(=O)oc3c2C)CN(C(=O)c2cc(N(C)C)c(C(=O)NS(=O)(=O)N3CC[C@@H](F)C3)cc2F)CC4)CCN1C [Example 314, 2-(dimethylamino)-5-fluoro-N-(((R)-3-fluoropyrrolidin-1-yl)sulfonyl)-4-(8-((R)-3-(methoxymethyl)-4-methylpiperazin-1-yl)-7,10-dimethyl-5-oxo-1,3,4,5-tetrahydro-2H-chromeno[3,4-c]pyridine-3-carbonyl)benzamide]",1 to 10 nM,100 to 1000 nM,1 to 10 nM,H (>9.0 to 30)
"COC[C@H]1CN(c2cc(C)c3c4c(c(=O)oc3c2C)CN(C(=O)c2cc(N(C)C)c(C(=O)NS(=O)(=O)N3CC5CC5C3)cc2F)CC4)CCN1C (stereo partly drawn) [Example 315, N-((3-azabicyclo[3.1.0]hexan-3-yl)sulfonyl)-2-(dimethylamino)-5-fluoro-4-(8-((R)-3-(methoxymethyl)-4-methylpiperazin-1-yl)-7,10-dimethyl-5-oxo-1,3,4,5-tetrahydro-2H-chromeno[3,4-c]pyridine-3-carbonyl)benzamide]",1 to 10 nM,100 to 1000 nM,1 to 10 nM,J (>30)
"COC[C@H]1CN(c2cc(Cl)c3c4c(c(=O)oc3c2C)CN(C(=O)c2cc(N(C)C)c(C(=O)NS(=O)(=O)N3C5CCC3CC5)cc2F)CC4)CCN1C [Example 316, (R)-N-((7-azabicyclo[2.2.1]heptan-7-yl)sulfonyl)-4-(10-chloro-8-(3-(methoxymethyl)-4-methylpiperazin-1-yl)-7-methyl-5-oxo-1,3,4,5-tetrahydro-2H-chromeno[3,4-c]pyridine-3-carbonyl)-2-(dimethylamino)-5-fluorobenzamide]",30 to 100 nM,1000 to 5000 nM,10 to 100 nM,J (>30)
"COC[C@H]1CN(c2cc(Cl)c3c4c(c(=O)oc3c2C)CN(C(=O)c2cc(N(C)C)c(C(=O)NS(=O)(=O)N3CC5(CCC5)C3)cc2F)CC4)CCN1C [Example 318, (R)-N-((2-azaspiro[3.3]heptan-2-yl)sulfonyl)-4-(10-chloro-8-(3-(methoxymethyl)-4-methylpiperazin-1-yl)-7-methyl-5-oxo-1,3,4,5-tetrahydro-2H-chromeno[3,4-c]pyridine-3-carbonyl)-2-(dimethylamino)-5-fluorobenzamide]",10 to 30 nM,100 to 1000 nM,1 to 10 nM,J (>30)
"COC[C@H]1CN(c2cc(Cl)c3c4c(c(=O)oc3c2C)CN(C(=O)c2cc(F)c(C(=O)NS(=O)(=O)N3CCCC3)cc2OC)CC4)CCN1C [Example 319, (R)-4-(10-chloro-8-(3-(methoxymethyl)-4-methylpiperazin-1-yl)-7-methyl-5-oxo-1,3,4,5-tetrahydro-2H-chromeno[3,4-c]pyridine-3-carbonyl)-2-fluoro-5-methoxy-N-(pyrrolidin-1-ylsulfonyl)benzamide]",100 to 1000 nM,1000 to 5000 nM,10 to 100 nM,J (>30)
"COC[C@H]1CN(c2cc(Cl)c3c4c(c(=O)oc3c2C)CN(C(=O)c2ccc(C(=O)NS(=O)(=O)N3C5CCC3CC5)c(OC)c2)CC4)CCN1C [Example 321, (R)-N-((7-azabicyclo[2.2.1]heptan-7-yl)sulfonyl)-4-(10-chloro-8-(3-(methoxymethyl)-4-methylpiperazin-1-yl)-7-methyl-5-oxo-1,3,4,5-tetrahydro-2H-chromeno[3,4-c]pyridine-3-carbonyl)-2-methoxybenzamide]",30 to 100 nM,1000 to 5000 nM,10 to 100 nM,J (>30)
"COC[C@H]1CN(c2cc(Cl)c3c4c(c(=O)oc3c2C)CN(C(=O)c2cc(N(C)C)c(C(=O)NS(=O)(=O)N3C5CCC3COC5)cc2F)CC4)CCN1C [Example 322, N-((3-oxa-8-azabicyclo[3.2. 1]octan-8-yl)sulfonyl)-4-(10-chloro-8-((R)-3-(methoxymethyl)-4-methylpiperazin-1-yl)-7-methyl-5-oxo-1,3,4,5-tetrahydro-2H-chromeno[3,4-c]pyridine-3-carbonyl)-2-(dimethylamino)-5-fluorobenzamide]",30 to 100 nM,1000 to 5000 nM,1 to 10 nM,J (>30)
"COC[C@H]1CN(c2cc(Cl)c3c4c(c(=O)oc3c2C)CN(C(=O)c2cc(OC)c(C(=O)NS(=O)(=O)N3C5CCC3CC5)cc2F)CC4)CCN1C [Example 324, (R)-N-((7-azabicyclo[2.2.1]heptan-7-yl)sulfonyl)-4-(10-chloro-8-(3-(methoxymethyl)-4-methylpiperazin-1-yl)-7-methyl-5-oxo-1,3,4,5-tetrahydro-2H-chromeno[3,4-c]pyridine-3-carbonyl)-5-fluoro-2-methoxybenzamide]",100 to 1000 nM,100 to 1000 nM,10 to 100 nM,J (>30)
"COC[C@H]1CN(c2cc(Cl)c3c4c(c(=O)oc3c2C)CN(C(=O)c2cc(OC)c(C(=O)NS(=O)(=O)N3CC5CC5C3)cc2F)CC4)CCN1C (stereo partly drawn) [Example 325, N-((3-azabicyclo[3.1.0]hexan-3-yl)sulfonyl)-4-(10-chloro-8-((R)-3-(methoxymethyl)-4-methylpiperazin-1-yl)-7-methyl-5-oxo-1,3,4,5-tetrahydro-2H-chromeno[3,4-c]pyridine-3-carbonyl)-5-fluoro-2-methoxybenzamide]",100 to 1000 nM,100 to 1000 nM,1 to 10 nM,J (>30)
"[2H]C([2H])([2H])Oc1cc(C(=O)N2CCc3c(c(=O)oc4c(C)c(N5CCN(C)[C@@H](COC)C5)cc(Cl)c34)C2)c(F)cc1C(=O)NS(=O)(=O)N1C2CCC1CC2 [Example 326, (R)-N-((7-azabicyclo[2.2.1]heptan-7-yl)sulfonyl)-4-(10-chloro-8-(3-(methoxymethyl)-4-methylpiperazin-1-yl)-7-methyl-5-oxo-1,3,4,5-tetrahydro-2H-chromeno[3,4-c]pyridine-3-carbonyl)-5-fluoro-2-(methoxy-d3)benzamide]",100 to 1000 nM,1000 to 5000 nM,1 to 10 nM,J (>30)
"[2H]C([2H])([2H])Oc1cc(C(=O)N2CCc3c(c(=O)oc4c(C)c(N5CCN(C)[C@@H](COC)C5)cc(Cl)c34)C2)c(F)cc1C(=O)NS(=O)(=O)N1CC2CC2C1 (stereo partly drawn) [Example 327, N-((3-azabicyclo[3.1.0]hexan-3-yl)sulfonyl)-4-(10-chloro-8-((R)-3-(methoxymethyl)-4-methylpiperazin-1-yl)-7-methyl-5-oxo-1,3,4,5-tetrahydro-2H-chromeno[3,4-c]pyridine-3-carbonyl)-5-fluoro-2-(methoxy-d3)benzamide]",100 to 1000 nM,100 to 1000 nM,1 to 10 nM,J (>30)
"[2H]C([2H])([2H])Oc1cc(C(=O)N2CCc3c(c(=O)oc4c(C)c(N5CCN(C)[C@@H](COC)C5)cc(C)c34)C2)c(Cl)cc1C(=O)NS(=O)(=O)N1CCCC1 [Example 328, (R)-5-chloro-2-(methoxy-d3)-4-(8-(3-(methoxymethyl)-4-methylpiperazin-1-yl)-7,10-dimethyl-5-oxo-1,3,4,5-tetrahydro-2H-chromeno[3,4-c]pyridine-3-carbonyl)-N-(pyrrolidin-1-ylsulfonyl)benzamide]",100 to 1000 nM,1000 to 5000 nM,10 to 100 nM,J (>30)
